Reference: PMC12389534, “Unlocking Therapeutic Potential of Novel Thieno-Oxazepine Hybrids as Multi-Target Inhibitors of AChE/BChE and Evaluation Against Alzheimer’s Disease: In Vivo, In Vitro, Histopathological, and Docking Studies” (Pharmaceuticals, 2025)
“Also recorded” adds a separate entry of the source.

Legend:
Bcl-2 = Bcl-2 gene expression (RT-qPCR); format: in vivo, rat; conditions: AlCl3-induced AD rats; for Bcl-2: gene expression, mean ± SE, n = 6
Method: (§1) The brain tissues of the rats were removed and rigorously washed in isotonic saline 24 h after they were euthanized following the last behavioral test. For histological investigation, four brains per group were preserved for the whole night in 10% neutral buffered formalin. The remaining six brains were split into two sections each. In order to create a 10% homogenate (w/v), the first component was instantaneously homogenized using an ice-cold solution that included 300 mM sucrose and 50 mM Tris-HCl (pH 7.4). The homogenate was centrifuged at 1800× g for 10 min at 4 °C for biochemical tests, and the supernatant was thereafter kept at −20 °C. The second portion was set aside for use in RT-PCR analysis at −80 °C [94].
(§2) See Supplementary Information.

TLR4 = TLR4 mRNA expression (RT-qPCR); format: in vivo, rat; parameters: reduction of TLR4 mRNA expression: concentration or dose not given beside the values; conditions: AlCl3-induced AD rats; for TLR4: mRNA expression level, mean ± SE, n = 6
Method: as §1, §2

[1] = system: brain tissue (CC, ST, FD, SN neurons); experiment: Histopathological examination of brain tissue; format: in vivo, rat; conditions: brain sections, AlCl3-induced AD rats; for histopathological finding in CC, ST, FD and SN (NP = nuclear pyknosis): H&E
Method: as §1
Brain tissue samples were stationed in 10% formalin for 24 h, washed with water, and then serially diluted with alcohol to induce dehydration. After being submerged in paraffin, the specimens were cut into segments that were 4 µm thick using a microtome.

TAC = experiment: Brain TAC (colorimetric); format: in vivo, rat; conditions: AlCl3-induced AD rats; for TAC (µmol/g Tissue): brain tissue, mean ± SE, n = 6
Method: as §1
(§3) The SOD enzyme activity was estimated using the Marklund et al. method, which is founded on the enzyme’s capacity to decrease the nitro blue tetrazolium dye at a wavelength of 540 nm. To evaluate the TAC, a colorimetric approach was employed to estimate the amount of hydrogen peroxide that remains after 3,5-dichloro-2-hydroxybenzene sulphonate is converted to a colored product at 660 nm.

NFκβ = NFκβ mRNA expression (RT-qPCR); format: in vivo, rat; parameters: reduction of NFκβ mRNA expression: concentration or dose not given beside the values; conditions: AlCl3-induced AD rats; for NFκβ: mRNA expression level, mean ± SE, n = 6
Method: as §1, §2

Caspase-1 = Caspase-1 gene expression (RT-qPCR); format: in vivo, rat; parameters: reduction of Caspase-1 levels: concentration or dose not given beside the values; conditions: AlCl3-induced AD rats; for Caspase-1: gene expression, mean ± SE, n = 6
Method: as §1, §2

NE = experiment: Brain NE level (fluorometric); format: in vivo, rat; conditions: AlCl3-induced AD rats; for NE (nmol/g Tissue): brain tissue, mean ± SE, n = 6
Method: as §1
(§4) Brain monoamine levels were promptly assessed following the rats’ euthanasia to prevent changes in the substance’s concentration. Dopamine (DA), norepinephrine (NE), and serotonin (5-HT) fluorometric tests were conducted on brain tissue homogenate using the Ciarlone method. […] The concentrations were articulated as nanograms per gram of fresh tissue using the fluorescence of reference solutions [95].

AChE = format: in vivo; parameters: reduction in AChE levels: concentration or dose not given beside the values; conditions: AlCl3-induced AD rats; for AChE (ng/g Tissue): brain tissue, mean ± SE, n = 6; for reduction in AChE levels: brain
HO-1 = HO-1 mRNA expression (RT-qPCR); format: in vivo, rat; conditions: AlCl3-induced AD rats; for HO-1: mRNA expression in brain tissue, mean ± SE, n = 6
Method: as §1, §2

BDNF = experiment: Brain BDNF level (ELISA); format: in vivo, rat; conditions: AlCl3-induced AD rats; for BDNF (ng/mL): brain tissue, mean ± SE, n = 6
Method: as §1, §2

MDA = experiment: Brain MDA content (thiobarbituric acid method); format: in vivo, rat; parameters: reduction in MDA brain content: concentration or dose not given beside the values; conditions: AlCl3-induced AD rats; for MDA (nmol/g Tissue): brain tissue, mean ± SE, n = 6
DA = experiment: Brain DA level (fluorometric); format: in vivo, rat; conditions: AlCl3-induced AD rats; for DA (ng/g Tissue): brain tissue, mean ± SE, n = 6
Method: as §1, §4

BACE1 = experiment: Brain BACE1 level (ELISA); format: in vivo, rat; parameters: reduction of BACE1 levels: concentration or dose not given beside the values; conditions: AlCl3-induced AD rats; for BACE1 (ng/mL): mean ± SE, n = 6
Method: as §1, with “[94]. […]” for “[94].”

[2] = system: AlCl3-induced AD rat model; experiment: Y-maze SAP test in AlCl3-induced AD rats; format: in vivo; conditions: for SAP%: mean ± SE, n = 6
Procedure, shortened: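 Spontaneous alternation performance measured in male Dawley rats (300–320 g) with AlCl3-induced AD, each allowed 8 min free exploration of a three-arm Y-maze. Arm entries counted with hind paws fully inside; SAP (%) = alternations/(total entries − 2) × 100.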

β-catenin = experiment: Brain β-catenin level; format: in vivo, rat; conditions: AlCl3-induced AD rats; for β-Catenin (ng/L): mean ± SE, n = 6
Method: as §1, §2

SOD = experiment: Brain SOD activity (colorimetric); format: in vivo, rat; conditions: brain tissue, AlCl3-induced AD rats; mean ± SE, n = 6
Method: as §1, §3

Wnt3a = experiment: Brain Wnt3a level; format: in vivo, rat; conditions: AlCl3-induced AD rats; for Wnt3a (ng/g Tissue): mean ± SE, n = 6
Method: as §1, §2

For `N#Cc1ccc(N2CC(=O)Oc3sc4c(c3C2=O)CCCCC4)cc1` [Compound 13, 4-(2,5-Dioxo-2,3,7,8,9,10-hexahydro-6H-cyclohepta[4,5]thieno[3,2-f][1,4]oxazepin-4(5H)-yl)benzonitrile], the “upregulation of Bcl-2 gene expression” value (Bcl-2) was 6.5 fold, the Bcl-2 (Bcl-2) was 0.79 ± 0.020 ^abc and the “reduction of TLR4 mRNA expression” value (TLR4) was 57.5%. For the same compound, the TLR4 (TLR4) was 4.09 ± 0.27 ^abc, the “histopathological finding in CC, ST, FD and SN (NP = nuclear pyknosis)” value [1] was “normal histology of CC and FD, and moderate NP in ST and SN” and the “histology of CC neurons and FD” value [1] was “normal histological structures”. For the same compound, the “pyknosis in ST and SN neurons” value [1] was “moderate pyknosis”, the “improvement of TAC levels” value (TAC) was about 3.4 times and the “TAC (µmol/g Tissue)” value (TAC) was 32.9 ± 1.22 ^abc µmol/g Tissue. The “reduction of NFκβ mRNA expression” value (NFκβ) was 58.8%, the NFκβ (NFκβ) was 3.49 ± 0.07 ^abc and the “reduction of Caspase-1 levels” value (Caspase-1) was 59.5%. For the same compound, the Caspase-1 (Caspase-1) was 3.85 ± 0.070 ^abc, the “rise in the level of NE” value (NE) was 2.4 times and the “NE (nmol/g Tissue)” value (NE) was 449.6 ± 2.3 ^abc nmol/g Tissue. The “AChE (ng/g Tissue)” value (AChE) was 24.35 ± 0.8 ^abc ng/g Tissue, the “reduction in AChE levels” value (AChE) was 63.8% and the “elevation of HO-1 mRNA expression” value (HO-1) was 6.2 fold. For the same compound, the HO-1 (HO-1) was 0.75 ± 0.010 ^abc, the “elevation of BDNF levels” value (BDNF) was 2.4 fold and the “BDNF (ng/mL)” value (BDNF) was 104.9 ± 0.07 ^abc ng/mL. For the same compound, the “reduction in MDA brain content” value (MDA) was 54.7%, the “MDA (nmol/g Tissue)” value (MDA) was 52.58 ± 0.08 ^abc nmol/g Tissue and the “elevation of DA levels” value (DA) was 4.1 fold. The “DA (ng/g Tissue)” value (DA) was 48.65 ± 2.3 ^abc ng/g Tissue, the “reduction of BACE1 levels” value (BACE1) was 61.7% and the “BACE1 (ng/mL)” value (BACE1) was 11.35 ± 0.31 ^abc ng/mL. For the same compound, the “increase in SAP%” value [2] was about 35%, the SAP% [2] was 82.67 ± 1.28 ^abc % and the “elevation of β-catenin levels” value (β-catenin) was 7.7 fold. For the same compound, the “β-Catenin (ng/L)” value (β-catenin) was 11.67 ± 0.13 ^abc ng/L, the “SOD(U/g)” value (SOD) was 2.53 ± 0.25 ^abc U/g and the “elevation of Wnt3a levels” value (Wnt3a) was 7 fold. The “Wnt3a (ng/g Tissue)” value (Wnt3a) was 0.84 ± 0.01 ^abc ng/g Tissue.

In the case of `CCOC(=O)c1c(O)sc2c1CCCCC2` [Compound 2, Ethyl 2-hydroxy-5,6,7,8-tetrahydro-4H-cyclohepta[b]thiophene-3-carboxylate], the Bcl-2 (Bcl-2) is reported as 0.27 ± 0.007 ^abc, the TLR4 (TLR4) is reported as 7.66 ± 0.12 ^abc and the “histopathological finding in CC, ST, FD and SN (NP = nuclear pyknosis)” value [1] is reported as “moderate NP in CC, FD, and SN, in addition to normal histology in ST; also recorded: significant NP in the CC, FD, and SN, whereas the striatal neurons’ histological structures remained normal”. The “improvement of TAC levels” value (TAC) was 1.9 times, the “TAC (µmol/g Tissue)” value (TAC) was 18.26 ± 0.395 ^abc µmol/g Tissue and the NFκβ (NFκβ) was 6.53 ± 0.08 ^abc. For the same compound, the Caspase-1 (Caspase-1) was 7.46 ± 0.120 ^abc, the “NE (nmol/g Tissue)” value (NE) was 256.9 ± 1.62 ^abc nmol/g Tissue and the “AChE (ng/g Tissue)” value (AChE) was 51.41 ± 0.13 ^abc ng/g Tissue. For the same compound, the “reduction in AChE levels” value (AChE) was 23.6%, the HO-1 (HO-1) was 0.34 ± 0.032 ^abc and the “BDNF (ng/mL)” value (BDNF) was 64.95 ± 0.01 ^abc ng/mL. For the same compound, the “MDA (nmol/g Tissue)” value (MDA) was 92.07 ± 0.04 ^abc nmol/g Tissue, the “DA (ng/g Tissue)” value (DA) was 24.71 ± 1.62 ^abc ng/g Tissue and the “reduction of BACE1 levels” value (BACE1) was 20.4%. For the same compound, the “BACE1 (ng/mL)” value (BACE1) was 23.60 ± 0.2 ^abc ng/mL, the “increase in SAP%” value [2] was 14.6% and the SAP% [2] was 62.33 ± 1.05 ^abc %. For the same compound, the “elevation of β-catenin levels” value (β-catenin) was 2.7 fold, the “β-Catenin (ng/L)” value (β-catenin) was 4.262 ± 0.12 ^abc ng/L and the “SOD(U/g)” value (SOD) was 0.68 ± 0.26 ^abc U/g. The “elevation of Wnt3a levels” value (Wnt3a) was 2 fold and the “Wnt3a (ng/g Tissue)” value (Wnt3a) was 0.25 ± 0.01 ^abc ng/g Tissue.
